Reference: patent publication US20050048508A1, “Trehalose receptor and method for detecting trehalose with the same” (KABUSHIKI KAISHA HAYASHIBARA SEIBUTSU KAGAKU KENKYUJO, priority 2002, published 2005)

Legend:
[1] = biological target: T1, trehalose receptor (G protein α-subunits and T1R3) (Mus musculus, UniProt Q925D8, I706N); test: Quantitation of trehalose using trehalose receptor, 96-well microplate fluorescence assay; type: cell-based; details: for Fluorescence intensity (integral value): 0.1 ml/well added to 100 µl cell suspension, ex 494 nm, em 516 nm
T1 construct: expressed in transfected cells; host or cells: 293 cells, RCB 1637 (human embryonic kidney)
T1 sequence (Q925D8 21-858 I706N): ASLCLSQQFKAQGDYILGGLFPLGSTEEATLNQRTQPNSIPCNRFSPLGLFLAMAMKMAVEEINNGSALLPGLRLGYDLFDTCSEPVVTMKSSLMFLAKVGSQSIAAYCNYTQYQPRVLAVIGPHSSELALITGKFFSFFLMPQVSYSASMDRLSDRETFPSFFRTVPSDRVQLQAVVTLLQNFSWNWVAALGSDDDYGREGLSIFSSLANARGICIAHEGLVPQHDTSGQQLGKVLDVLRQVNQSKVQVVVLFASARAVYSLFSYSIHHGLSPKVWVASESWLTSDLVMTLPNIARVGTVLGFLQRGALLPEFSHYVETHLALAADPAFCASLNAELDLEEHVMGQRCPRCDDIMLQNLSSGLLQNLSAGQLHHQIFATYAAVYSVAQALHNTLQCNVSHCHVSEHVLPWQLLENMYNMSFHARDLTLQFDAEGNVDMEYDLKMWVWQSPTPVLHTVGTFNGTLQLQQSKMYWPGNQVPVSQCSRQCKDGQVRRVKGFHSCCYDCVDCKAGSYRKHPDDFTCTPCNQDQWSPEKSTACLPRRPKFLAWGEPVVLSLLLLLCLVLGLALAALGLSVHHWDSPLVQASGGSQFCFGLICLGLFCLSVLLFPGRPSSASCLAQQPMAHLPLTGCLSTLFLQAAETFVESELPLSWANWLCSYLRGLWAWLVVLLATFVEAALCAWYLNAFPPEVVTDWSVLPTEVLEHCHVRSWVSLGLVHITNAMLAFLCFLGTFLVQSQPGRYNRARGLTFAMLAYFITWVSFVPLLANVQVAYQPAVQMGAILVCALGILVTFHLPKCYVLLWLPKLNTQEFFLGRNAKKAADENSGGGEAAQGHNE
Description: The captioned reactivity test was conducted according to a conventional intracellular calcium ion assay: 293 Cells prepared in Example 3, capable of coexpressing the G protein α-subunits and the sweet taste receptor(s), were cultured in a plastic petri dish for cell culture until reaching its confluent phase. Thereafter, the cells were detached from the inner surface of the petri dish with a 0.05% (v/v) trypsin solution and a 0.53 mM EDTA solution, suspended in D-MEM supplemented with 10% (v/v) fetal calf serum to give a cell density of 1×10^6 cells/ml, and allowed to intake “FLUO-4. AM”, a reagent for detecting intracellular calcium ion commercialized by Molecular Probes Inc., Ore., USA, by adding to the cell suspension to give a final concentration of 2 μM and incubating the cells at 37 ° C. for 30 to 90 min. The resulting cells were washed with a buffer for detecting calcium ion, which contained 10 mM HEPES (pH 7.4), 130 mM sodium chloride, 5.4 mM potassium chloride, 2 mM calcium chloride, 1 mM magnesium chloride, 5.5 mM D-glucose, 0.1% (v/v) calf serum albumin, and 1 mM sodium pyruvate to remove the reagent remained extracellularly; suspended in a fresh preparation of the same buffer to give a cell density of 2.67 ×10^7 cells/ml; filtered with a membrane with a pore size of 100 μm mesh; and allowed to stand at 25° C. for 30 min. Two milliliters of the resultant cell suspension was injected into a glass cuvette, commercialized by Hitachi, Ltd., Tokyo, Japan, and analyzed on “HITACHI 650-40”, a fluorescence spectrophotometer commercialized by Hitachi, Ltd., Tokyo, Japan.
One hundred microliter aliquots of the cell suspension in Example 4 were placed in commercially available 96-well microplates, followed by placing 0.1 ml/well of any of trehalose solutions with different concentrations of 1, 2, 5, 10, 20, 50, 100, 200, 500, 1,000, and 2,000 mM, prepared with trehalose and the same buffer for calcium ion assay as used in Example 4; and assayed on “FLUOROSCAN ASCENT W/DF”, an automatic fluorescence spectrophotometer for multi-plates, Dainippon Pharmaceutical Co., Ltd., Tokyo, Japan, at an excitation wavelength of 494 nm and a fluorescence wavelength of 516 nm, followed by calculating the integral values for the detected fluorescence intensities.

[2] = relative to sucrose; cited from earlier work

OC[C@H]1O[C@H](O[C@H]2O[C@H](CO)[C@@H](O)[C@H](O)[C@H]2O)[C@H](O)[C@@H](O)[C@@H]1O [Trehalose]
Concentration at which trehalose is detectable ([1]; trehalose receptor cells, fluorescence assay of Table 5): ≥ 5 mM
Fluorescence intensity (integral value) ([1]; trehalose solution 1 mM): 0.2
Fluorescence intensity (integral value) ([1]; trehalose solution 2 mM): 0.5
Fluorescence intensity (integral value) ([1]; trehalose solution 5 mM): 10
Fluorescence intensity (integral value) ([1]; trehalose solution 10 mM): 19
Fluorescence intensity (integral value) ([1]; trehalose solution 20 mM): 29
Fluorescence intensity (integral value) ([1]; trehalose solution 50 mM): 45
Fluorescence intensity (integral value) ([1]; trehalose solution 100 mM): 82
Fluorescence intensity (integral value) ([1]; trehalose solution 200 mM): 159
Fluorescence intensity (integral value) ([1]; trehalose solution 500 mM): 421
Fluorescence intensity (integral value) ([1]; trehalose solution 1,000 mM): 670
Fluorescence intensity (integral value) ([1]; trehalose solution 2,000 mM): 720
Sweetening power [2]: 45%
